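GI50 marks 50% less growth. Definition used: TGI = concentration required for complete inhibition of growth.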 Where a SMILES comes first, the peptide text is derived from it. [ ]: non-standard residue; d: D form. The star is where a group is joined. Dolaproine = CO[C@@H]([C@@H]1CCCN1)[C@@H](C)C(=O)O; Dil = CC[C@H](C)[C@H](NC)[C@@H](CC(=O)O)OC; X2 = C[C@@H](N*)[C@@H](O)c1ccccc1; NMeV = CN[C@H](C(=O)O)C(C)C
What was measured:
Assay in all cases: inhibition of tumour cell growth, NCI panel, 384-well format
UACC-257 melanoma = tested on: UACC-257 melanoma
K-562 leukemia = tested on: K-562 leukemia
TK-10 renal = tested on: TK-10 renal
MCF7 breast = tested on: MCF7 breast
SF-268 CNS = tested on: SF-268 CNS
M14 melanoma = tested on: M14 melanoma
ACHN renal = tested on: ACHN renal
HCT-15 colon = tested on: HCT-15 colon
SNB-19 CNS = tested on: SNB-19 CNS
COLO 205 colon = tested on: COLO 205 colon
NCI-H322M lung = tested on: NCI-H322M lung
OVCAR-4 ovarian = tested on: OVCAR-4 ovarian
RPMI-8226 leukemia = tested on: RPMI-8226 leukemia
NCI-H23 lung = tested on: NCI-H23 lung
RXF 393 renal = tested on: RXF 393 renal
MOLT-4 leukemia = tested on: MOLT-4 leukemia
KM12 colon = tested on: KM12 colon
HOP-62 NSCLC = tested on: HOP-62 NSCLC
NCI/ADR-RES ovarian = tested on: NCI/ADR-RES ovarian
SK-OV-3 ovarian = tested on: SK-OV-3 ovarian
OVCAR-3 ovarian = tested on: OVCAR-3 ovarian
HCC-2998 colon = tested on: HCC-2998 colon
NCI-H522 lung = tested on: NCI-H522 lung
NCI-H460 NSCLC = tested on: NCI-H460 NSCLC
SN12C renal = tested on: SN12C renal
UO-31 renal = tested on: UO-31 renal
SK-MEL-2 melanoma = tested on: SK-MEL-2 melanoma
LOX IMVI melanoma = tested on: LOX IMVI melanoma
MDA-MB-435 melanoma = tested on: MDA-MB-435 melanoma
OVCAR-8 ovarian = tested on: OVCAR-8 ovarian
SF-539 CNS = tested on: SF-539 CNS
U251 glioblastoma = tested on: U251 glioblastoma
A498 renal = tested on: A498 renal
HCT-116 colon = tested on: HCT-116 colon
DU-145 prostate = tested on: DU-145 prostate
A549 NSCLC = tested on: A549 NSCLC
MDA-MB-231 breast = tested on: MDA-MB-231 breast
T-47D breast = tested on: T-47D breast
UACC-62 melanoma = tested on: UACC-62 melanoma
HOP-92 NSCLC = tested on: HOP-92 NSCLC
MDA-MB-468 breast = tested on: MDA-MB-468 breast
MALME-3M melanoma = tested on: MALME-3M melanoma
BT-549 breast = tested on: BT-549 breast
IGROV1 ovarian = tested on: IGROV1 ovarian
SK-MEL-5 melanoma = tested on: SK-MEL-5 melanoma
786-0 renal = tested on: 786-0 renal
SF-295 CNS = tested on: SF-295 CNS
HT29 colon = tested on: HT29 colon
CCRF-CEM leukemia = tested on: CCRF-CEM leukemia
CAKI-1 renal = tested on: CAKI-1 renal
NCI-H226 lung = tested on: NCI-H226 lung
SW-620 colon = tested on: SW-620 colon
OVCAR-5 ovarian = tested on: OVCAR-5 ovarian
SR leukemia = tested on: SR leukemia
HL-60(TB) leukemia = tested on: HL-60(TB) leukemia

CC[C@H](C)[C@@H]([C@@H](CC(=O)N1CCC[C@H]1[C@H](OC)[C@@H](C)C(=O)N[C@H](C)[C@@H](O)c1ccccc1)OC)N(C)C(=O)[C@@H](NC(=O)[C@@H](NC)C(C)C)C(C)C (H-[NMeV]V[Dil][Dolaproine]-X2)
GI50 (UACC-257 melanoma): < 10 nM | TGI (UACC-257 melanoma): 12700 nM | GI50 (K-562 leukemia): < 10 nM | TGI (K-562 leukemia): < 10 nM | GI50 (TK-10 renal): < 10 nM | TGI (TK-10 renal): > 100000 nM | GI50 (MCF7 breast): < 10 nM | TGI (MCF7 breast): 121 nM | GI50 (SF-268 CNS): < 10 nM | TGI (SF-268 CNS): < 10 nM | GI50 (M14 melanoma): < 10 nM | TGI (M14 melanoma): < 10 nM | GI50 (ACHN renal): < 10 nM | TGI (ACHN renal): > 100000 nM | GI50 (HCT-15 colon): < 10 nM | TGI (HCT-15 colon): 63.2 nM | GI50 (SNB-19 CNS): < 10 nM | TGI (SNB-19 CNS): < 10 nM | GI50 (COLO 205 colon): < 10 nM | TGI (COLO 205 colon): < 10 nM | GI50 (NCI-H322M lung): < 10 nM | TGI (NCI-H322M lung): > 100000 nM | GI50 (OVCAR-4 ovarian): < 10 nM | TGI (OVCAR-4 ovarian): 24300 nM | GI50 (RPMI-8226 leukemia): < 10 nM | TGI (RPMI-8226 leukemia): < 10 nM | GI50 (NCI-H23 lung): < 10 nM | TGI (NCI-H23 lung): < 10 nM | GI50 (RXF 393 renal): < 10 nM | TGI (RXF 393 renal): < 10 nM | GI50 (MOLT-4 leukemia): < 10 nM | TGI (MOLT-4 leukemia): < 10 nM | GI50 (KM12 colon): < 10 nM | TGI (KM12 colon): < 10 nM | GI50 (HOP-62 NSCLC): < 10 nM | TGI (HOP-62 NSCLC): 30.4 nM | GI50 (NCI/ADR-RES ovarian): 105 nM | TGI (NCI/ADR-RES ovarian): 266 nM | GI50 (SK-OV-3 ovarian): < 10 nM | TGI (SK-OV-3 ovarian): < 10 nM | GI50 (OVCAR-3 ovarian): < 10 nM | TGI (OVCAR-3 ovarian): < 10 nM | GI50 (HCC-2998 colon): < 10 nM | TGI (HCC-2998 colon): < 10 nM | GI50 (NCI-H522 lung): < 10 nM | TGI (NCI-H522 lung): < 10 nM | GI50 (NCI-H460 NSCLC): < 10 nM | TGI (NCI-H460 NSCLC): < 10 nM | GI50 (SN12C renal): < 10 nM | TGI (SN12C renal): > 100000 nM | GI50 (UO-31 renal): < 10 nM | TGI (UO-31 renal): > 100000 nM | GI50 (SK-MEL-2 melanoma): < 10 nM | TGI (SK-MEL-2 melanoma): < 10 nM | GI50 (LOX IMVI melanoma): < 10 nM | TGI (LOX IMVI melanoma): < 10 nM | GI50 (MDA-MB-435 melanoma): < 10 nM | TGI (MDA-MB-435 melanoma): < 10 nM | GI50 (OVCAR-8 ovarian): < 10 nM | TGI (OVCAR-8 ovarian): < 10 nM | GI50 (SF-539 CNS): < 10 nM | TGI (SF-539 CNS): < 10 nM | GI50 (U251 glioblastoma): < 10 nM | TGI (U251 glioblastoma): < 10 nM | GI50 (A498 renal): < 10 nM | TGI (A498 renal): 11.2 nM | GI50 (HCT-116 colon): < 10 nM | TGI (HCT-116 colon): < 10 nM | GI50 (DU-145 prostate): < 10 nM | TGI (DU-145 prostate): < 10 nM | GI50 (A549 NSCLC): < 10 nM | TGI (A549 NSCLC): < 10 nM | GI50 (MDA-MB-231 breast): < 10 nM | TGI (MDA-MB-231 breast): < 10 nM | GI50 (T-47D breast): < 10 nM | TGI (T-47D breast): > 100000 nM | GI50 (UACC-62 melanoma): < 10 nM | TGI (UACC-62 melanoma): < 10 nM | GI50 (HOP-92 NSCLC): < 10 nM | TGI (HOP-92 NSCLC): < 10 nM | GI50 (MDA-MB-468 breast): < 10 nM | TGI (MDA-MB-468 breast): < 10 nM | GI50 (MALME-3M melanoma): < 10 nM | TGI (MALME-3M melanoma): < 10 nM | GI50 (BT-549 breast): < 10 nM | TGI (BT-549 breast): < 10 nM | GI50 (IGROV1 ovarian): < 10 nM | TGI (IGROV1 ovarian): 91.6 nM | GI50 (SK-MEL-5 melanoma): < 10 nM | TGI (SK-MEL-5 melanoma): < 10 nM | GI50 ([…]-0 renal): < 10 nM | TGI (786-0 renal): < 10 nM | GI50 (SF-295 CNS): < 10 nM | TGI (SF-295 CNS): < 10 nM | GI50 (HT29 colon): < 10 nM | TGI (HT29 colon): < 10 nM | GI50 (CCRF-CEM leukemia): < 10 nM | TGI (CCRF-CEM leukemia): < 10 nM | GI50 (CAKI-1 renal): < 10 nM | TGI (CAKI-1 renal): 24400 nM | GI50 (NCI-H226 lung): < 10 nM | TGI (NCI-H226 lung): < 10 nM | GI50 (SW-620 colon): < 10 nM | TGI (SW-620 colon): > 100000 nM | GI50 (OVCAR-5 ovarian): < 10 nM | TGI (OVCAR-5 ovarian): > 100000 nM | GI50 (SR leukemia): < 10 nM | TGI (SR leukemia): < 10 nM | GI50 (HL-60(TB) leukemia): < 10 nM | TGI (HL-60(TB) leukemia): < 10 nM
